In PMC12746157, “Light-Regulated Agonists Spatiotemporally Activating the Vitamin D Receptor Mitigate Psoriasis-like Inflammation in Mice without Inducing Hypercalcemia” (ACS Central Science, 2025):

Tests used:
VDR [1] = molecular target: T1, VDR (Homo sapiens, UniProt P11473); test: Luminescent proximity homogeneous assay (AlphaScreen): interaction of purified VDR, RxR and TRAP220 coactivator fragment; format: biochemical
Protocol: The activity of all molecules was evaluated using a luminescent proximity homogeneous assay to study interactions between purified VDR, RxR and a fragment of the transcriptional coactivator TRAP220 (Supporting Information). This method allowed us to monitor the interaction between TRAP220 and the activated VDR-RxR heterodimer, which is of mechanistic and physiological significance. Both the activation of VDR and the VDR-RxR heterodimer formation are necessary to promote the whole complex association. This system efficiently includes conformational events of the receptor upon activation that go beyond a simple binding measurement. […]
The activity of all molecules was evaluated using an in-vitro luminescent proximity homogeneous assay by using the Alphascreen technology (Cat No. 6760619R, Perkin Elmer, now Revvity). In a transparent 96-well preplate, 10X concentrations of the compounds were prepared in assay buffer (0.1% bovine serum albumin, 2 mM 1,4-dithiothreitol, 25 mM HEPES and 100 mM NaCl; pH 7.3). LSN2148936 was used as positive control. Purified histidine-tagged VDR (44 µM), flag-RxRa (5.7 µM), biotin tagged TRAP220 transcriptional coactivator (500 µM), and the donor and acceptor beads from the AlphaScreen kit (2 µL/mL each), were diluted in assay buffer. In the dark, 6 µL/well of each test compound were pipetted on a white, shallow 96-well ProxiPlateTM […]
(§1) (Perkin Elmer, now Revvity, Cat.No. 6006290) in duplicate. Immediately, 54 µL of the protein solution were added and the plate was covered and incubated for 30 min at room temperature in the dark. Meanwhile, the plate with the 10X dilutions was illuminated at 365 nm for 3 min in a 96-well DED array plate (LEDA Teleopto), to allow the photoconversion of the molecules to their cis configuration. The illuminated compounds were mixed with the protein solution and incubated as described above for the plate in the dark. After the incubation time, the counts of both, the dark and illuminated plates, were measured in a Tecan Spark 20M Multimode plate reader with defined settings (excitation: 680 nm, emission: 520-620 nm, excitation time: 100ms, integration time: 300 ms). Biotinylated-His6 peptide (PerkinElmer) was used as a quality control reagent for AlphaScreen® assays and to evaluate compound interaction with the method. The raw data were normalized to the effect of the buffer (0%) and the maximum response obtained with LSN2148936 (100%). Dose-response curves and EC50 values were calculated with Graphpad software. Each experiment was performed in triplicate, with 2 replicates per plate.
4. Hydrogen/deuterium exchange coupled to mass spectrometry (HDX-MS)
The HDX-MS experiments were performed with an in-house automated modular system interfaced with an Orbitrap Exploris 480 mass spectrometer.1 Two inter-day experiments were conducted: one in the dark (first day) and one illuminated with 365 nm light (second day). Sample preparation and on-exchange reactions were performed on opaque plates (VWR® Real-Time […]
mm, Part Nº BC5226) light source was positioned above the Tecan system used for sample preparation. The distance between the UV light and the opaque plates was 80 cm. The 365 nm light illuminated the sample preparation process and the on-exchange reaction on the second day.
A 10 µM VDR-LBD protein stock solution was prepared in 20 mM HEPES buffer (with 150 mM NaCl, 10 mM D-L Methionine and 5 mM DTT) at pH 7.5. The compound 11b was prepared at 10 mM in DMSO. The protein: compound-complex (1:10 molar ratio) was pre-incubated for 1h before the first on-exchange reaction. The HDX reaction was initiated by a 5-fold dilution of the protein stock solution, in the presence and absence of compound 11b, in the corresponding Deuterated buffer at room temperature. Samples were prepared in parallel with three replicates of […]
time point, HDX reactions were quenched with a solution of 3 M Urea and 1% TFA (pH 2.5) followed by online proteolysis with an in-house Pepsin immobilized column and desalting […]

VDR-LBD = molecular target: T2, VDR-LBD (Homo sapiens, UniProt P11473); test: HDX-MS of VDR-LBD with ligand in the dark and under 365 nm light; format: binding; conditions: dark vs 365 nm illumination
T2 construct: VDR-LBD protein stock solution was prepared in 20 mM HEPES buffer
T2 sequence (P11473 127-423 limits assumed): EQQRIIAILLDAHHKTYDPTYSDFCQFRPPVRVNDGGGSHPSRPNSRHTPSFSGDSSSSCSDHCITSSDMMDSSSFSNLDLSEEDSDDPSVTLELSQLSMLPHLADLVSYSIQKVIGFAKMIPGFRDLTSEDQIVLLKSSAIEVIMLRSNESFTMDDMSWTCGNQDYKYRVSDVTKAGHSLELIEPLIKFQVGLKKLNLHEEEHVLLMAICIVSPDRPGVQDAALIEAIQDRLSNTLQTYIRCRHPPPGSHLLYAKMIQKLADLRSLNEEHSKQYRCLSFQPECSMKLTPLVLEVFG
Protocol: Although previously used to study the effect of a cyclic azopeptide in its activated cis state, here we studied the target dynamics upon direct application of the light to the sample. To this aim, HDX-MS was applied for the characterization of the binding mode and modulation of receptor dynamics of the racemic compound PhotoVDRM. VDR-LBD was incubated alone (to provide an apo control for each experiment) or with an excess of compound PhotoVDRM and exposed to deuterium labeling for various periods of time, from 10 s to 2 h, in the dark and illuminated with light at 365 nm. […] As an additional control experiment, we also evaluated the HDX-MS of VDR-LBD in the presence and absence of a standard agonist, compound LSN2148936, in the dark and under illumination conditions. […] In order to permit direct comparison, including mathematical manipulation of the data in all these experiments, the observed deuterium incorporation percentages were converted to rate constants (expressed as −log10(k)) using our previously published Bayesian approach.
as §1, with “The raw data were normalized to the effect of the buffer (0%) and the maximum response obtained with LSN2148936 (100%).” left out, “Each experiment was performed in triplicate, with 2 replicates per plate.” left out

[2] = system: IL-23-induced psoriatic-like inflammation; test: IL-23-induced mouse model of psoriasis (ear thickness); format: in vivo, C57BL/6N mice; conditions: 420 or 520 nm light regime; i.p. LSN2148936 0.005 mg/kg
Protocol: Each mice was administered interlueukin 23 (IL-23) once a day for a total of 3 days by intradermal injection (i.d.) into one of the mouse ears. Contralateral ear i.d. injected with PBS was used as control. Subsequently, ear thickness was measured daily, by using a digital caliper, as indicative of psoriasis-course progression (Figure A).
(A) Temporal scheme for IL-23-induced mouse model of psoriasis. Animals were treated with IL-23 (i.d.) in the left ear during three consecutive days (days 1, 2 and 3). In addition, a contralateral control was performed consisting of PBS administration in the right ear. At day 2, 3, and 4 animals were previously intraperitoneally (i.p.) administered with vehicle (saline) and drugs (i.e., LSN2148936; 0.005 mg/kg and PhotoVDRM; 0.5 mg/kg). Both ears were irradiated with 420 or 520 nm light at day 2, 3, and 4 during 8 min. […] (C) Inflammatory ear response measurements. Mice ear thickness determination in animals administrated (ip) on days 2, 3, and 4 with vehicle, LSN2148936 or PhotoVDRM treated with 420 or 520 nm light. Each day, ear thickness was measured in millimeters and represented as percentage of ear thickness increase using the first measurement of PBS-administrated ear as control. Data is shown as mean ± SD, n = 5 mice per group. Statistical analysis between PhotoVDRM and vehicle. *P < 0.05 and **P < 0.01 Student’s t test.

[3] = Serum total calcium measurement in mice (Arsenazo III); format: in vivo; conditions: after treatment i.p. days 2-4 (LSN2148936 0.005 mg/kg, PhotoVDRM 0.5 mg/kg), 420 or 520 nm
VDR [4] = molecular target: T1, VDR; test: Luminescent proximity homogeneous assay (AlphaScreen): interaction of purified VDR, RxR and TRAP220 coactivator fragment; format: biochemical; conditions: UVB narrowband light (315 nm) and visible illumination at 420 nm
VDR [5] = molecular target: T1, VDR; conditions: vs other steroid receptors such as the glucocorticoid; no reference given; cited from earlier work

T1 sequence (P11473 whole entry, the tested form may be a part): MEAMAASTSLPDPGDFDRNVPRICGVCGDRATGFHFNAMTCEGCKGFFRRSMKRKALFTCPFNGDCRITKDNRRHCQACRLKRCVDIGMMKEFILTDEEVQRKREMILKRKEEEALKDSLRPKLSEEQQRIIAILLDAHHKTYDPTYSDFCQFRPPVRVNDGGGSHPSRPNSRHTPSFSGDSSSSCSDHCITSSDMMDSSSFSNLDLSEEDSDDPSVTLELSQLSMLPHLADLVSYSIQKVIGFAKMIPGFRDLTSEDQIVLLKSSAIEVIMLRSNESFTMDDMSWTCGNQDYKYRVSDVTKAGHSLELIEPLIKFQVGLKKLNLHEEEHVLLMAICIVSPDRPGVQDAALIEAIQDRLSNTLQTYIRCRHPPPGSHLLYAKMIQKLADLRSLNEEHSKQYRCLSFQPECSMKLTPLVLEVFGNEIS
T1 sequence (P19793 whole entry partner, the tested form may be a part): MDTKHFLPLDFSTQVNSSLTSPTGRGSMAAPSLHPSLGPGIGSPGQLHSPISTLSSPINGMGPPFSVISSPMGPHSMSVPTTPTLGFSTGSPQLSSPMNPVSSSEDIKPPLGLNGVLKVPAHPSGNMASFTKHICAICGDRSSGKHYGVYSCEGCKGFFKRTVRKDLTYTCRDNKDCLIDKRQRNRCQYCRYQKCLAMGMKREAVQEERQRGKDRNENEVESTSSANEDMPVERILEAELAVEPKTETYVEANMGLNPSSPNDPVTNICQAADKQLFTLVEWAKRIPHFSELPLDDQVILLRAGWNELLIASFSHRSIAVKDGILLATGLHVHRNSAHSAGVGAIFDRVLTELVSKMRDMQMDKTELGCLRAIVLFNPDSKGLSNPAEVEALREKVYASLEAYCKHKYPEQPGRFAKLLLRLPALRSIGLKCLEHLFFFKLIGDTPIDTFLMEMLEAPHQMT
T1 sequence (Q15648 whole entry partner, the tested form may be a part): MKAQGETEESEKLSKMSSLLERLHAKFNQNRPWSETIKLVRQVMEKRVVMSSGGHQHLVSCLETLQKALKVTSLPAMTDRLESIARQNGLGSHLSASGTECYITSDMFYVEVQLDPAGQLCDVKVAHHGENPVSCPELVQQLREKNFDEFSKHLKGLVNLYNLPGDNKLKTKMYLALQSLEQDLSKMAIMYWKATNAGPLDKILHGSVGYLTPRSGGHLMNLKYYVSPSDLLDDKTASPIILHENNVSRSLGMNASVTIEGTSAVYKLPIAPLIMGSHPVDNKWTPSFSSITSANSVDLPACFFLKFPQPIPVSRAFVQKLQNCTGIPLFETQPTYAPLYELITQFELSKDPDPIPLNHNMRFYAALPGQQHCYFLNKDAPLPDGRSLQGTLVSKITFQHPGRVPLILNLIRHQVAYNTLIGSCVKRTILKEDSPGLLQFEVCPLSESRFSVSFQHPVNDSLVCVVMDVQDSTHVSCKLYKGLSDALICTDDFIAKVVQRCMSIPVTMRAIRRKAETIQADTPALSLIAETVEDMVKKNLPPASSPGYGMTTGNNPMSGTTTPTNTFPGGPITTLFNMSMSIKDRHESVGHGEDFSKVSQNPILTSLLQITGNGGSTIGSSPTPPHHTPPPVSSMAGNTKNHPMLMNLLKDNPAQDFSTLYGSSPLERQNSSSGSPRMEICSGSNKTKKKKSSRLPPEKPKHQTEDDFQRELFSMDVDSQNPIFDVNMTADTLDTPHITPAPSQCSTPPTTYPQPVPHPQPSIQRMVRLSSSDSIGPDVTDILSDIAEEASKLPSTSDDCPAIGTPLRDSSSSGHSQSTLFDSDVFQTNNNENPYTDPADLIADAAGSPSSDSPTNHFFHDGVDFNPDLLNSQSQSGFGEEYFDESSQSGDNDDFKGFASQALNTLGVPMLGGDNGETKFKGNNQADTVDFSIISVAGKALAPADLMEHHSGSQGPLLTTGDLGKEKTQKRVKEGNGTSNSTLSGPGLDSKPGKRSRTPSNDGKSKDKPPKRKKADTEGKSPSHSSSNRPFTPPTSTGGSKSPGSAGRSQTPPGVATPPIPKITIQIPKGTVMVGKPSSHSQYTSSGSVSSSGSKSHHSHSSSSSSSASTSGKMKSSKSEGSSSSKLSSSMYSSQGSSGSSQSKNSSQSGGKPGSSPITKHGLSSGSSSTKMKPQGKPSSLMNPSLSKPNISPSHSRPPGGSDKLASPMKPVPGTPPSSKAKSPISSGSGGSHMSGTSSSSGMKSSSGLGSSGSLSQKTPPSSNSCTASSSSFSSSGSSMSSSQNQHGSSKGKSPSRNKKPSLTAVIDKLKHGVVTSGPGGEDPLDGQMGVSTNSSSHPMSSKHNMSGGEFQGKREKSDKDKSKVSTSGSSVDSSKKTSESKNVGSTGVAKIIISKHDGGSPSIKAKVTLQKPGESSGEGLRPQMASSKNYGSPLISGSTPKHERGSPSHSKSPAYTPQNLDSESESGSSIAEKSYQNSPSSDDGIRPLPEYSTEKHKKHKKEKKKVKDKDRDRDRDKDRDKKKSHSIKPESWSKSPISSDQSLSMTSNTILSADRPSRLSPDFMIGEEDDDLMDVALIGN

Question: With `CCC(CC)(c1ccc(CCC(O)C(C)(C)C)c(C)c1)c1ccc(C(=O)N(C)CC(=O)O)c(C)c1` (stereo not shown) [LSN2148936, reference compound] as the compound, how does the Emax (VDR [1]; after illumination (365 nm) for 3 min, normalized to maximum response of LSN2148936 (100%), mean ± SEM) read?
Answer: 107 ± 0.08%

Question: And the “effect of application of light on activity (control)” value (VDR [1]; dark vs 365 nm)?
Answer: not affected

Question: What about the “light-dependent changes of HDX behavior” value (VDR-LBD) of the same compound?
Answer: no significant light-dependent changes

Question: What about the “IL-23-induced ear inflammation (ear thickness)” value [2] of the same compound?
Answer: prevented IL-23-associated inflammatory response

Question: What about the “effect on calcium homeostasis (serum total calcium)” value [3] of the same compound?
Answer: significant effects

Question: What about the “modulation of activity by light” value (VDR [4]) of the same compound?
Answer: not

Question: What about the “selectivity for VDR” value (VDR [5]) of the same compound?
Answer: highly selective
